Results as given in BindingDB's records for patent US12383533 (Frost Biologic, 2025).

Biological target: Tubulin alpha-1A chain (Sus scrofa, UniProt P02550)
Assay: Not found
Source text: Not found

Chain of Tubulin alpha-1A chain (P02550 whole entry, looked up): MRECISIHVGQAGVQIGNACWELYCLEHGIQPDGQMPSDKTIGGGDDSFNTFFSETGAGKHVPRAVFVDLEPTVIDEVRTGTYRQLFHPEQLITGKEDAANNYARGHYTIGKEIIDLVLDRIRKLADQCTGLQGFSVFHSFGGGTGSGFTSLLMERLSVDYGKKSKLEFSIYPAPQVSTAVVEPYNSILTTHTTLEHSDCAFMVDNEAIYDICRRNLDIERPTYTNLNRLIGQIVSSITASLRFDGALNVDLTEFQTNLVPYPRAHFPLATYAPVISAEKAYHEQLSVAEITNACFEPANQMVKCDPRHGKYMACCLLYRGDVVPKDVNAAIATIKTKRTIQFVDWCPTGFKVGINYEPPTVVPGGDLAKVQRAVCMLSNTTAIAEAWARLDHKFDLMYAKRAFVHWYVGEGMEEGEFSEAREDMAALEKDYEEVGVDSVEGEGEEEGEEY

- IC50: 1980 nM
Compound: Cc1ncc(C(=O)Nc2ncc(-c3cccc(NC4CC4)c3)cc2F)cn1 [US12383533, Compound 68]
